# Measurements: EP0897904B1, “Fungicidal 2-methoxybenzophenones” (BASF AKTIENGESELLSCHAFT, priority 1997, dated 1999)
# Like-named read-outs stand apart in the source and are kept apart here.
# Experiments:
# Assay type in all cases: in vivo
# [1] = system: Blumeria (Erysiphe) graminis DC. f.sp. tritici E. Marchal; test: Curative and residual control test, Wheat Powdery Mildew (WPM); settings: read-out: Disease control (% efficacy)
# Excerpt: (§1) • (a) Wheat Powdery Mildew (WPM): HOST: Wheat (Triticum aestivum L.) variety Kanzler PATHOGEN: Blumeria (Erysiphe) graminis DC. f.sp. tritici E. Marchal • (b) Cucumber Powdery Mildew (QPM): HOST: Cucumber (Cucumis sativus L.) variety Bush pickle PATHOGEN: Erysiphe cichoracearum DC
# (§2) This test procedure is for curative and residual control of powdery mildew diseases. • 1. Wheat seed (approximately 8-10/pot) or cucumber seed (1 seed / pot) is planted in 6 cm diameter plastic pots and maintained in the greenhouse. • 2. When the primary leaf (wheat) or the cotyledons (cucumber) is/are fully expanded, formulated test compounds are sprayed with a single nozzle overhead track sprayer at a rate of 200 l/ha. Plants are then allowed to air-dry. • 3. Inoculation precedes treatment by 2 or 3 days in the case of curative evaluations and follows treatment by 3 or 4 days in case of residual evaluations. For inoculation, plants are set up on greenhouse benches with bottom watering mats and inoculated by dusting them with conidia from powdery mildew infected plants (stock cultures at an age of 10-14 days). Between inoculation and treatment for curative evaluations and between treatment and inoculation for residual evaluations, plants are maintained in the greenhouse with bottom watering. • 4. Disease on the primary leaf (wheat) or on the cotyledons (cucumber) as percent leaf area with disease symptoms/signs is evaluated about 7 days after inoculation. In the case of wheat, the tips and bases of the leaves are excluded from the evaluation. Percent disease control is then calculated by the following formula: % disease control = 100 -(% infection in treated plants)/(% infection in untreated plants)x 100 [formula]
# (§3) • 1. Technical compounds are formulated in a solvent/surfactant system consisting of 5% acetone and 0.05% Tween 20 in deionized water. Compounds are dissolved in acetone prior to addition of the water; the Tween 20 can be added through either the acetone or the water. Dilutions are made using the solvent/surfactant system. Formulated compounds are prepared using deionized water. • 2. Two kinds of controls are included: • Plants treated with the solvent/surfactant solution and inoculated (Solvent Blank). • Untreated plants which are inoculated (Inoculated Control).
# [2] = system: Blumeria (Erysiphe) graminis DC. f.sp. tritici E. Marchal; test: Zero day protectant test, Wheat Powdery Mildew (WPM); settings: wheat variety Kanzler, 0 day protectant test, side-by-side, technical material in 0.5% acetone 0.05% Tween 20 water
# Excerpt: (§4) • (a) Wheat Powdery Mildew (WPM): HOST: Wheat (Triticum aestivum L.) variety Kanzler PATHOGEN: Blumeria (Erysiphe) graminis DC. f.sp. tritici E. Marchal • (b) Barley Powdery Mildew (BPM): HOST: Barley (Hordeum vulgare L.) variety Golden Promise PATHOGEN: Blumeria (Erysiphe) graminis DC. f.sp. hordei E. Marchal
# (§5) This test is a zero day protectant test for control of wheat and barley powdery mildews. • 1. Wheat or barley seed (approximately 8-10/pot) is planted in 6 cm diameter plastic pots and maintained in the greenhouse. • 2. When the primary leaf is fully expanded, formulated test compounds are sprayed with a single nozzle overhead track sprayer at a rate of 200 l/ha. Plants are then allowed to air-dry. • 3. Inoculation follows about three hours after compound application. Plants are set up on greenhouse benches with bottom watering mats and inoculated by dusting them with conidia from powdery mildew infected plants (stock cultures at an age of 10-14 days). • 4. Disease on the primary leaf as percent leaf area with disease symptoms/signs is evaluated about 7 days after inoculation. The tips and bases of the leaves are excluded from the evaluation. Percent disease control is then calculated by the following formula: % disease control = 100 -(% infection in treated plants)/(% infection in untreated plants)x 100 [formula]
# as §3, with “system. Test compounds are typically tested over a range of concentrations covering several orders of magnitude and then ED values are calculated for comparison of compounds.” for “system.”
# (§6) Compounds applied as technical material formulated in 0.5% acetone 0.05% Tween 20 water
# [3] = system: Erysiphe cichoracearum DC; test: Curative and residual control test, Cucumber Powdery Mildew (QPM); settings: Golovinomyces cichoracearum, 72 h, read-out: Disease control (% efficacy); for Emax at 12.5 ppm: QPM 3 da R (3 day residual), 12,5 ppm; for Emax at 125 ppm / Emax at 1250 ppm: QPM 3 da R (3 day residual)
# Excerpt: as §1, §2, §3
# [4] = system: Blumeria (Erysiphe) graminis DC. f.sp. hordei E. Marchal; test: Zero day protectant test, Barley Powdery Mildew (BPM); settings: barley variety Golden Promise, 0 day protectant test, side-by-side, technical material in 0.5% acetone 0.05% Tween 20 water
# Excerpt: as §4, §5
# as §3, with “system. Test compounds are typically tested over a range of concentrations covering several orders of magnitude and then ED values are calculated for comparison of compounds.” for “system.”
# as §6
# [5] = 48 h, WPM 2 da C (2 day curative), 12,5 ppm, Test B
# [6] = 48 h, WPM 2 da C (2 day curative), 125 ppm, Test B
# [7] = 48 h, WPM 2 da C (2 day curative), 1250 ppm, Test B
# [8] = 72 h, WPM 3 da R (3 day residual), 12,5 ppm, Test B
# [9] = 72 h, WPM 3 da R (3 day residual), 125 ppm, Test B
# [10] = 72 h, WPM 3 da R (3 day residual), 1250 ppm, Test B
# [11] = 72 h, WPM 3 da C (3 day curative)
# [12] = 72 h, WPM 3 da C (3 day curative), 125 ppm
# [13] = 96 h, WPM 4 da R (4 day residual)
# [14] = 96 h, WPM 4 da R (4 day residual), 125 ppm
SMILES,"percent disease control at 12.5 ppm [1, 8]","percent disease control at 125 ppm [1, 9]","percent disease control at 1250 ppm [1, 10]",ED90 (ppm) [2],Emax at 12.5 ppm ([3]; Test B),Emax at 125 ppm ([3]; Test B),Emax at 1250 ppm ([3]; Test B),ED90 (ppm) [4],"percent disease control at 0.2 ppm [1, 11]","percent disease control at 1 ppm [1, 11]","percent disease control at 5 ppm [1, 11]","percent disease control at 25 ppm [1, 11]","percent disease control at 125 ppm [1, 12]","percent disease control at 0.2 ppm [1, 13]","percent disease control at 1 ppm [1, 13]","percent disease control at 5 ppm [1, 13]","percent disease control at 25 ppm [1, 13]","percent disease control at 125 ppm [1, 14]",also measured
"COc1cc(C)c(C(=O)c2c(OC)ccc(Br)c2Cl)c(OC)c1OC [Example 4, 5-bromo-6-chloro-6'-methyl-2,2',3',4'-tetramethoxy-benzophenone]",99%,100%,100%,5 ppm,8%,97%,100%,7 ppm,–,–,–,–,–,–,–,–,–,–,"percent disease control at 12.5 ppm [1, 5]: 55%; percent disease control at 125 ppm [1, 6]: 71%; percent disease control at 1250 ppm [1, 7]: 61%"
"COc1cc(C)c(C(=O)c2c(OC)ccc(Br)c2C)c(OC)c1OC [Example 6, 5-bromo-6,6'-dimethyl-2,2',3',4'-tetramethoxy-benzophenone]",100%,100%,100%,0.1 ppm,35%,92%,100%,0.9 ppm,17%,27%,43%,60%,64%,58%,90%,100%,100%,100%,"percent disease control at 12.5 ppm ([1]; 48 h, WPM 2 da C (2 day curative), 12,5 ppm, Test A): 90%; Emax at 12.5 ppm [1, 5]: 61%; percent disease control at 125 ppm ([1]; 48 h, WPM 2 da C (2 day curative), 125 ppm, Test A): 95%; Emax at 125 ppm [1, 6]: 89%; percent disease control at 1250 ppm ([1]; 48 h, WPM 2 da C (2 day curative), 1250 ppm, Test A): 98%; Emax at 1250 ppm [1, 7]: 87%; percent disease control at 12.5 ppm ([1]; 72 h, WPM 3 da R (3 day residual), 12,5 ppm, Test A): 100%; percent disease control at 125 ppm ([1]; 72 h, WPM 3 da R (3 day residual), 125 ppm, Test A): 100%; percent disease control at 1250 ppm ([1]; 72 h, WPM 3 da R (3 day residual), 1250 ppm, Test A): 100%; Emax at 12.5 ppm ([3]; Test A): 2%; Emax at 125 ppm ([3]; Test A): 92%; Emax at 1250 ppm ([3]; Test A): 100%"
"COc1cc(C)c(C(=O)c2c(OC)ccc(C(F)(F)F)c2C)c(OC)c1OC [Example 64, 6,6'-dimethyl-2,2',3',4'-tetramethoxy-5-trifluoromethyl-benzophenone]",–,–,–,–,–,–,–,–,10%,37%,48%,60%,72%,51%,89%,99%,100%,100%,–
"COc1cc(C)c(C(=O)c2c(OC)cccc2C(F)(F)F)c(OC)c1OC [Example 65, 6'-methyl-2,2',3',4'-tetramethoxy-6-trifluoromethyl-benzophenone]",–,–,–,–,–,–,–,–,10%,23%,23%,48%,58%,25%,50%,93%,99%,100%,–
"Fc1ccc(Oc2ccnc3cc(Cl)cc(Cl)c23)cc1 [Quinoxyfen, reference compound]",–,–,–,12 ppm,–,–,–,26 ppm,–,–,–,–,–,–,–,–,–,–,–
